Reference: patent US20040266862A1, “Method of improving animal tissue quality by supplementing the animal diet with mixed tocotrienols” (priority 2003, published 2004)
Marks after values point to notes of the source that are not given here.

Legend:
[1] = system: swine; test: 2000-2001 swine feed test: raw pork loin color (Minolta L*); type: in vivo
Description: (§1) Applicants assessed the effects of antioxidant supplementation on meat quality in an experiment in which pork from pigs fed one of four dietary treatments was compared across three genetic lines differing in carcass leanness and intramuscular fat content. Ninety-six pigs were used in the test, thirty-two in each of the three genetic lines. Swine feeding was initiated in September 2000. At about 80 pounds body weight the 32 pigs of each of the three genetic lines were randomly allotted to individual pens. The pigs were fed corn/soy based diets formulated to provide adequate levels of all nutrients. In addition, one of four dietary treatments was assigned to each pen: control, 1,000 ppm NAC, 500 ppm LA and 150 ppm MT.
(§2) The pigs were harvested in November and December 2000 when they had reached an average weight of 260 pounds. Meat tissue quality evaluations occurred on Jan. 28, 2001. At the packing plant individual hot carcass weight, back fat depth and loin depth were measured and lean percent was calculated. Loin pH and loin color value (Minolta L*) were recorded 24 hours post mortem.
Minolta L* color value was measured objectively using a Minolta colorimeter. The Minolta L* value is an indication of the lightness of the pork loin. A lower value indicates a darker color and thus, higher quality.

[2] = system: swine; test: 2000-2001 swine feed test: 24 hour raw pork loin pH; type: in vivo; details: for 24 hour raw pork loin pH, Increase vs. Control: overall ave.
Description: as §1, §2

[3] = in vitro; compared with ATA; Kamat et al. 1997; cited from earlier work
[4] = system: swine; details: administered to swine; Berg, NPPC Project No. 99-164; cited from earlier work

CC(=O)N[C@@H](CS)C(=O)O [NAC, N-acetylcysteine]
raw pork loin color, Minolta L* value ([1]; Line 1 ave., 1,000 ppm in diet): 49.7 | raw pork loin color, Minolta L* value ([1]; Line 2 ave., 1,000 ppm in diet): 53.0 | raw pork loin color, Minolta L* value ([1]; Line 3 ave., 1,000 ppm in diet): 49.0 | raw pork loin color, Minolta L* value ([1]; overall ave., 1,000 ppm in diet): 50.5 | 24 hour raw pork loin pH ([2]; Line 1 ave., 1,000 ppm in diet): 6.07^b | 24 hour raw pork loin pH ([2]; Line 2 ave., 1,000 ppm in diet): 5.78^a | 24 hour raw pork loin pH ([2]; Line 3 ave., 1,000 ppm in diet): 5.93^c | 24 hour raw pork loin pH ([2]; Overall ave. of three genetic lines, 1,000 ppm in diet): 5.93^b | 24 hour raw pork loin pH, Increase vs. Control ([2]; 1,000 ppm in diet): 0.16

alpha-tocotrienol
antioxidant activity [3]: greater antioxidant activity than ATA

O=C(O)CCCCC1CCSS1 (stereo not drawn) [LA, alpha-lipoic acid]
Color Score [4]: decrease | Loin pH [4]: increase | raw pork loin color, Minolta L* value ([1]; Line 1 ave., 500 ppm in diet): 52.0 | raw pork loin color, Minolta L* value ([1]; Line 2 ave., 500 ppm in diet): 50.9 | raw pork loin color, Minolta L* value ([1]; Line 3 ave., 500 ppm in diet): 49.1 | raw pork loin color, Minolta L* value ([1]; overall ave., 500 ppm in diet): 50.7 | 24 hour raw pork loin pH ([2]; Line 1 ave., 500 ppm in diet): 6.00^b | 24 hour raw pork loin pH ([2]; Line 2 ave., 500 ppm in diet): 5.90^b | 24 hour raw pork loin pH ([2]; Line 3 ave., 500 ppm in diet): 5.99^c | 24 hour raw pork loin pH ([2]; Overall ave. of three genetic lines, 500 ppm in diet): 5.99^b | 24 hour raw pork loin pH, Increase vs. Control ([2]; 500 ppm in diet): 0.20

CC(C)=CCC/C(C)=C/CC/C(C)=C/CC[C@]1(C)CCc2cc(O)c(C)c(C)c2O1 [gamma-tocotrienol]
antioxidant activity [3]: greater antioxidant activity than ATA
